Test [1] concerns the target T1, adenosine A2A receptor (Homo sapiens, UniProt P29274).
T1 construct: gene ADORA2A; membrane preparation of HEK293 cells overexpressing the human A2A receptors
Nature of the test: radioligand competition with [3H]-adenosine. Type of test: binding.

For test [2], the target named is T2, adenosine A2A receptor (Rattus norvegicus, UniProt P30543).
T2 construct: gene Adora2a; rat striatum membrane preparation
The test is described as follows: radioligand competition with [3H]-CGS21680. Format: binding. (In a radioligand displacement assay an active substance lowers the binding of a labelled ligand.)

The next test concerns the target T3, 5-HT transporter (Homo sapiens, UniProt P31645).
T3 construct: gene SLC6A4
Nature of the test: Cerep Diversity Profile screen, single concentration […].

From article PMC5671655, “LASSBio-897 Reduces Lung Injury Induced by Silica Particles in Mice: Potential Interaction with the A2A Receptor” (Frontiers in Pharmacology, 2017) come the findings set out here.

T1 sequence (P29274 whole entry): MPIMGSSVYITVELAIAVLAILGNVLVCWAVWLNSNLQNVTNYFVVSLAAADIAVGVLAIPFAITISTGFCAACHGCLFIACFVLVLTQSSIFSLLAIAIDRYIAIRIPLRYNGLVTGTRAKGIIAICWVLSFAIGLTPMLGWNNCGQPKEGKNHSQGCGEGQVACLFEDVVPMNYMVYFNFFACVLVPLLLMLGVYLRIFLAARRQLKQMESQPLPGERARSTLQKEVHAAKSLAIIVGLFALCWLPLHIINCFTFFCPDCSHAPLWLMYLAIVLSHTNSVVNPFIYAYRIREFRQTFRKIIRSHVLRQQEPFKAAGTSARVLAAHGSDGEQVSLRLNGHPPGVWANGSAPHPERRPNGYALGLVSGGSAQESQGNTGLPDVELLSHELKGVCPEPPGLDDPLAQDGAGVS
T3 sequence (P31645 whole entry): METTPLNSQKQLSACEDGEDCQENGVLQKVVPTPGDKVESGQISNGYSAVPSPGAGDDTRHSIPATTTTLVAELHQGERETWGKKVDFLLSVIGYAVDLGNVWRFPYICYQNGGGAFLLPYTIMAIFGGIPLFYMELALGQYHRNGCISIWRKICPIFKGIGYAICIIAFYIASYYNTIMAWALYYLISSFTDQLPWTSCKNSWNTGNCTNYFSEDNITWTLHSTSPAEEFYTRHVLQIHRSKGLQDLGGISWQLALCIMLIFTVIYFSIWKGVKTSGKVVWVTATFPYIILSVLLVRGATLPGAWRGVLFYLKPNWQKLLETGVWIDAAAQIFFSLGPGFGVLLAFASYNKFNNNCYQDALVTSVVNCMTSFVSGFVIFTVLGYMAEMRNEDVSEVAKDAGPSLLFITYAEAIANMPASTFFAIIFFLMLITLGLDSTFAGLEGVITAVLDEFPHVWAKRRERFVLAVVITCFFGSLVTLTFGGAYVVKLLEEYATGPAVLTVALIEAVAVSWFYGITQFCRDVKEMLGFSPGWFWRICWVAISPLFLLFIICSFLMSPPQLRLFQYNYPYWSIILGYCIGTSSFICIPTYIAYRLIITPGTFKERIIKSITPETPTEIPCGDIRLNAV
T2 sequence (P30543 whole entry): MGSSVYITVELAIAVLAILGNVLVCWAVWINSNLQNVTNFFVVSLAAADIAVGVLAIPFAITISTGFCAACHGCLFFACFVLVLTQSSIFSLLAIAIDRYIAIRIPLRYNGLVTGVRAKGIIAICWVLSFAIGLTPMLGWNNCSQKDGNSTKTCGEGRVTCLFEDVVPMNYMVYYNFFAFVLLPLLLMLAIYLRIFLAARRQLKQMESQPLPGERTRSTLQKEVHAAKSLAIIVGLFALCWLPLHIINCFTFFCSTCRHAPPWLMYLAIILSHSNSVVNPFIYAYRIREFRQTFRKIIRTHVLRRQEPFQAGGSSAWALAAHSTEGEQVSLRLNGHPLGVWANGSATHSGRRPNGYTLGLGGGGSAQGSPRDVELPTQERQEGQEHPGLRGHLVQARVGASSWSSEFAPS

As usually defined, the IC50 is the point on the concentration scale where inhibition reaches its midpoint. The low end stands for greater potency, the high end for weaker potency. The term inhibition denotes the relative decrease from the control value, in per cent. Higher therefore signals a strong effect. With `O=C(N/N=C/c1ccsc1)c1ccc2c(c1)OCO2` [LASSBio-897], the IC50 was 11.4 µM on adenosine A2A receptor [1] and 9.3 µM at adenosine A2A receptor [2]. The inhibition at 10 µM on 5-HT transporter was 56%.
